From PMC9811466, “Structural Features Affecting the Interactions and Transportability of LAT1-Targeted Phenylalanine Drug Conjugates” (Molecular Pharmaceutics, 2022)
Several values for one entry are separate records, joined by “and”; a condition that tells them apart may be missing. Identical values can stand only once. Like-named read-outs stand apart in the source and are kept apart here.

How the values were obtained:
hLAT1/4F2hc [1] = molecular target: T1, hLAT1/4F2hc (Homo sapiens, UniProt Q01650); experiment: cis-inhibition of [14C]-L-leucine uptake in HEK-hLAT1 cells; type: cell-based; details: for inhibition at 50 µM: read-out: [14C]-L-Leucine uptake inhibition % (50μM)
T1 construct: Invitrogen (host cells)
T1 sequence (Q01650 whole entry): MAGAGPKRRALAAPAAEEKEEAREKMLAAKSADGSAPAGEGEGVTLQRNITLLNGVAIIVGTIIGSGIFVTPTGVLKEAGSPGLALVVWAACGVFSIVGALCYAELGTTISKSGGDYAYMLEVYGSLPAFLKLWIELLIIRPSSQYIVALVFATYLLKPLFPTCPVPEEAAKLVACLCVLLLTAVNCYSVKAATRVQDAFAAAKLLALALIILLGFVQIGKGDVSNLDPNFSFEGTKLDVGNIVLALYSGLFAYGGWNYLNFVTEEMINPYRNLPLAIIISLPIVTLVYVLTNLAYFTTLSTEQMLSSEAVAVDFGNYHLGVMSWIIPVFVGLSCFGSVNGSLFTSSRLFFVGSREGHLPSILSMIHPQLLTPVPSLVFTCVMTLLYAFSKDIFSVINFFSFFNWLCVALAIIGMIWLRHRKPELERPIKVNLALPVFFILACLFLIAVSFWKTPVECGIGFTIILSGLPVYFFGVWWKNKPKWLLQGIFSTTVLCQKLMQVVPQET
T1 sequence (P08195 102-630 partner): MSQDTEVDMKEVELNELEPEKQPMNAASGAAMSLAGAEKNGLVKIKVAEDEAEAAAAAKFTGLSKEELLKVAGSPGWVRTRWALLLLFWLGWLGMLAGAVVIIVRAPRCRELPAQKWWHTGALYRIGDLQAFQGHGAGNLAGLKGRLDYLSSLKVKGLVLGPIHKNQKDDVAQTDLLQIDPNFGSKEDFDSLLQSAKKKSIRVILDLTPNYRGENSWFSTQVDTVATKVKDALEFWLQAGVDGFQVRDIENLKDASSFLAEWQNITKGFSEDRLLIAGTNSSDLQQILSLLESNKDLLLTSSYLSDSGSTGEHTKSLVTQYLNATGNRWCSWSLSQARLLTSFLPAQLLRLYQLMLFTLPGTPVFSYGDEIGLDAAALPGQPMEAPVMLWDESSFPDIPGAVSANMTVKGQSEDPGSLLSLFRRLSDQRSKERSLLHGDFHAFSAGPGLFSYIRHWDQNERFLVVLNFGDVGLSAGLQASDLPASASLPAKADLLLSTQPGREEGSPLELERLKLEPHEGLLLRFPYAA
Protocol: (§1) In the following experiments, the MCF-7, HEK-hLAT1, and HEK-MOCK cells were cultured, seeded, and preincubated as described above. The HBSS was removed, and the ability of the compounds to inhibit the uptake of a known LAT1 substrate, [^14C]-L-leucine (PerkinElmer, Waltham, MA, USA), was studied by incubating the cells at RT for 10 min in uptake buffer pH 7.4 (250 μL) containing 0.76 μM (0.1 mCi/mL) of [^14C]-L-leucine and 0.025–1800 μM of the studied compound (or HBSS as blank). After incubation, the reaction was stopped with ice-cold HBSS, and the cells were washed two times with ice-cold HBSS. The cells were then lysed with 250 μL of 0.1 M sodium hydroxide, the lysate was mixed with 1.0 mL of Emulsifier safe cocktail (PerkinElmer, Waltham, MA, USA), and the radioactivity was measured with a liquid scintillation counter (MicroBeta^2 counter, PerkinElmer, Waltham, MA, USA). The inhibition of [^14C]-L-leucine in the presence of the studied compounds as compared to the control (HBSS) was calculated as percentages (%).
Using the stably hLAT1/4F2hc expressing cell line, the compounds’ inhibitory efficiencies and uptake kinetics were determined via the cis-inhibition assay and uptake studies, respectively. (Table 1) Cis-inhibition is based on the competition between the ligand and LAT1 substrate [^14C]-L-leucine that results in inhibition of substrate uptake. The competitive uptake with L-leucine is reported as the IC50 value of L-leucine uptake and extent as inhibition percentage (%) at a given concentration.

[2] = molecular target: T2, LAT1 in MCF-7 human breast cancer cells (Homo sapiens, UniProt Q01650); experiment: cis-inhibition of [14C]-L-leucine uptake in MCF-7 cells; type: cell-based; details: for inhibition at 50 µM: MCF7, MCF-7 cells, 50 μM compound; for IC50: MCF-7 cells
T2 construct: wild-type MCF-7 human breast cancer cell line; endogenous in cells; host or cells: MCF-7 human breast cancer cells (wild type)
T2 sequence (Q01650 whole entry): as the sequence (Q01650 whole entry) above
T2 sequence (P08195 102-630 partner): as the sequence (P08195 102-630 partner) above
Protocol: Cells were cultured in DMEM (Gibco, ThermoFisher Scientific, Waltham, MA, USA) supplemented with L-glutamine (2 mM; ThermoFisher Scientific, Waltham, MA, USA), heat-inactivated fetal bovine serum (10%; Gibco, ThermoFisher Scientific, Waltham, MA, USA), penicillin (50 U/mL)-streptomycin (50 μg/mL) solution (ThermoFisher Scientific, Waltham, MA, USA), and hygromycin B solution (100 μg/mL) for transfected cells. HEK-hLAT1 and HEK-MOCK cells (passages 7–20) were seeded at a density of 5 × 10^5 cells/wells onto 24-well plates. The cells were used in the characterization, competition, and uptake studies 2 days after seeding. MCF-7 cells were seeded at a density of 1 × 10^5 and were used in the competition studies 1 day after seeding. The culture medium was removed, and the cells were washed with prewarmed Hanks’ balanced salt solution (HBSS; 125 mM NaCl, 4.8 mM KCl, 1.2 mM MgSO4, 1.2 mM KH2PO4, 1.3 mM CaCl2, 5.6 mM D-glucose, and 25 mM HEPES, pH 7.4). The cells were then incubated with HBSS at 37 °C for 10 min before the experiments.
as §1

hLAT1/4F2hc [3] = molecular target: T1, hLAT1/4F2hc; experiment: Concentration-dependent cellular uptake into HEK-hLAT1 cells (LC-MS/MS, Michaelis-Menten); type: cell-based; details: difference in uptake HEK-hLAT1 vs HEK-MOCK, with docking poses; 2-100 μM curves
hLAT1/4F2hc [4] = molecular target: T1, hLAT1/4F2hc; experiment: as above; type: cell-based; details: for Vmax / Km: HEK-hLAT1 cells; for Vmax: 2-400 μM, 10 min
Protocol: (§2) The concentrations for the compounds were in the range of 2–400 μM. Otherwise, the experiment was carried out as described above and analyzed by liquid chromatography coupled with an electrospray ionization (ESI) triple quadrupole mass spectrometer (LC–MS–MS). […]
(§3) The concentration-dependent uptake studies were performed by adding 2–400 μM of the tested compound in 250 μL of prewarmed HBSS buffer on the cell layer. […] After incubation, the cells were washed and lysed as described above. The lysate was collected from wells into an Eppendorf tube and centrifuged at 4 °C, the supernatant was collected, and the intracellular concentrations of studied compounds were analyzed by liquid chromatography coupled with an ESI triple quadrupole mass spectrometer (LC–MS–MS). The results were calculated from the standard curve that was prepared by spiking known amounts of each compound to the cell lysate and normalized to protein concentration. The protein concentrations on each plate were determined as a mean of three samples by Bio-Rad Protein Assay, based on the Bradford dye-binding method, using BSA as a standard protein and measuring the absorbance (595 nm) by a multiplate reader (EnVision, PerkinElmer, Inc., Waltham, MA, USA). All statistical analyses (Michaelis–Menten kinetic parameters) were performed using GraphPad Prism v. 5.03 software (GraphPad Software, San Diego, CA., USA). […]
(§4) After protein precipitation, the samples were centrifuged for 10 min with 10,000 g at 4 °C. The supernatant was then collected and transferred to vials for LC–MS/MS analysis. For BCH and gabapentin, cells were also lysed with 0.1 M NaOH, an aliquot was taken from the lysates, and perchloric acid (PCA) was added to precipitate the proteins. The samples were then centrifuged, and the supernatant was diluted 1:10 with H20 with 0.1% formic acid including the IS and transferred to vials for analysis.
(§5) The samples were analyzed with LC–MS/MS coupled with an Agilent 1200 series Rapid Resolution LC System (Agilent Technologies, Waldbronn, Germany) and an Agilent 6410 Triple Quadrupole with electrospray ionization (ESI) (Agilent Technologies, Palo Alto, CA, USA). […] The aqueous mobile phase was 0.1% formic acid in water (A), while the organic mobile phase was 0.1% formic acid in acetonitrile (B). […] For compound 4: 0–4 min 10% → 90% B, 4–6 min 90% B, 6–6.1 min 90% → 10%, 6.1–9 min 10%. For compound 5: 0–1 min 20% → 95% B, 1–4 min 95%, 4–4.1 min 95% → 20%, 4.1–7 min 20%. For compounds 6 and 9: 0–2 min 10% → 95%, 2–6 min 95%, 6–6.1 min 95% → 10%, 6.1–9 min 10%. For compound 8: 0–1 min 20% → 80%, 1–5.2 min 80%, 5.2–5.3 min 80% → 20%, 5.3–9 min 20%.

HEK-MOCK cells [5] = experiment: Concentration-dependent cellular uptake into HEK-MOCK cells; type: cell-based, human; details: for Vmax: 10 min
Protocol: as §2, §3, §4, §5

HEK-MOCK cells [6] = experiment: cis-inhibition of [14C]-L-leucine uptake in HEK-MOCK cells; type: cell-based, human; details: HEK-MOCK cells, known substrates; for [14C]-L-Leucine uptake inhibition % (50μM): 50 μM compound, 0.76 μM [14C]-L-leucine, 10 min
Protocol: as §1
Using the stably hLAT1/4F2hc expressing cell line, the compounds’ inhibitory efficiencies and uptake kinetics were determined via the cis-inhibition assay and uptake studies, respectively. (Table 1) Cis-inhibition is based on the competition between the ligand and LAT1 substrate [^14C]-L-leucine that results in inhibition of substrate uptake. The competitive uptake with L-leucine is reported as the IC50 value of L-leucine uptake and extent as inhibition percentage (%) at a given concentration. Overall, the inhibition trends of the tested compounds were similar between HEK-hLAT1 and MCF-7 cells. In the next step, more straightforward results were obtained by undertaking direct cellular uptake studies with both HEK-hLAT1 and HEK-MOCK cells. This experiment enabled us to determine not only the uptake kinetics (Vmax and Km) of the ligands but also their preference for LAT1-expressing cells over the comparator HEK-MOCK cells.

[7] = HEK-hLAT1 cells, 50 μM compound, compounds 1-12
[8] = HEK-hLAT1 cells, compounds 1-12, read-out: IC50 of [14C]-L-leucine uptake
[9] = known LAT1 substrates, 2-400 μM, n = 3
[10] = known LAT1 substrates, n = 3, read-out: Km
[11] = HEK-hLAT1 cells, known substrates, read-out: IC50 of [14C]-L-leucine uptake

Structure (SMILES) | inhibition at 50 µM (hLAT1/4F2hc [1]; [7]) [%] | IC50 (hLAT1/4F2hc [1]; [8]) [µM] | inhibition at 50 µM [2] [%] | IC50 [2] [µM] | interaction class with LAT1 (interaction and transportability) (hLAT1/4F2hc [3]) | Vmax (hLAT1/4F2hc [4]; known LAT1 substrates, n = 3) | Vmax (HEK-MOCK cells [5]; [9]) | Km (HEK-MOCK cells [5]; known LAT1 substrates, n = 3) [µM] | [14C]-L-Leucine uptake inhibition % (50μM) (HEK-MOCK cells [6]) | Km (hLAT1/4F2hc [4]; [10]) [µM] | IC50 (hLAT1/4F2hc [1]; [11]) [µM] | also measured
COc1ccc2cc(C(C)C(=O)Nc3cccc(C[C@H](N)C(=O)O)c3)ccc2c1 (some centres unmarked) [Compound 12] | 28 ± 2.6 | > 100 | 83 ± 1.7 | 5.6 ± 1.3 | not interacting with LAT1 |  |  |  |  |  |  | 
N[C@@H](Cc1ccc(N(CCCl)CCCl)cc1)C(=O)O [Melphalan, reference compound] |  |  |  |  |  | 0.08±0.01 nmol/min/mg of protein | 0.07±0.09 nmol/min/mg of protein | 91 ± 21 | no inhibition |  |  | Km (hLAT1/4F2hc [4]; known LAT1 substrates, n = 3): 35 ± 7 µM; IC50 (hLAT1/4F2hc [1]): 6.6 µM; inhibition at 50 µM (hLAT1/4F2hc [1]): 38.2 ± 2.4%
CCCC(CCC)C(=O)Nc1cccc(C[C@H](N)C(=O)O)c1 [Compound 4] |  | > 100 |  | 81 ± 1.4 | highest interactions |  |  |  |  |  |  | Vmax (hLAT1/4F2hc [4]; compounds 1-12): 1027 pmol/min/mg of protein and 1027±170 pmol/min/mg of protein; Km (hLAT1/4F2hc [4]; compounds 1-12, read-out: Km): 111 ± 30 µM; potency for hLAT1 relative to HEK-MOCK (Km ratio) (hLAT1/4F2hc [4]; Km 111 μM HEK-hLAT1 vs 277 μM HEK-MOCK): more than two-fold; Vmax (uptake rate) in HEK-hLAT1 cells relative to HEK-MOCK cells (hLAT1/4F2hc [4]; ratio of Vmax values): around three; Km (HEK-MOCK cells [5]; compounds 1-12): 277 µM; Vmax (HEK-MOCK cells [5]; compounds 1-12, 2-400 μM): 292 pmol/min/mg of protein and 292±710 pmol/min/mg of protein; [14C]-L-Leucine uptake inhibition % (50μM) (hLAT1/4F2hc [1]; [7]): no inhibition
NCC1(CC(=O)O)CCCCC1 [Gabapentin, reference compound] |  |  |  |  |  | 18±9.9 nmol/min/mg of protein | 4.7±1.6 nmol/min/mg of protein | 182 ± 86 | no inhibition | 552 ± 334 | 36 | inhibition at 50 µM (hLAT1/4F2hc [1]; HEK-hLAT1 cells, 50 μM compound, 0.76 μM [14C]-L-leucine, 10 min, known substrates): 46.7 ± 1.7%; IC50 (HEK-MOCK cells [6]; Homo sapiens, read-out: IC50 of [14C]-L-leucine uptake): > 1000 µM
CC(C(=O)Nc1cccc(C[C@H](N)C(=O)O)c1)c1ccc(-c2ccccc2)c(F)c1 (some centres unmarked) [Compound 11] | 26.4 ± 3.1 | > 100 | 84 ± 3.1 | 2.2 ± 1.3 | not interacting with LAT1 |  |  |  |  |  |  | 
N[C@@H](Cc1ccc(O)c(O)c1)C(=O)O [L-DOPA, reference compound] |  |  |  |  |  | 15±7.6 nmol/min/mg of protein | 2.8±0.9 nmol/min/mg of protein | 225 ± 90 | no inhibition | 763 ± 413 | 4.1 | 
